Drawing on patent US9187472B2 (AbbVie Inc., priority 2012, dated 2015), this text covers IC50 for 25 molecules.

For assay [1], the system named is PC3 cells. Description: NAMPT Cell Proliferation Assay. In kind it is cell-based. Particulars: Homo sapiens, PC-3, 120 h, 5 days incubation, cell viability by Cell Titer Glo. In outline: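 IC50 values derive from sigmoidal dose-response fits of percent inhibition of PC3 viability, measured by luminescence after 5 days of compound treatment. Cells (500/well, RPMI containing 10% heat-inactivated FBS) are allowed to attach overnight, and compounds are tested at 10-fold dilutions between 10 μM and 1×10^−5 μM.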

In assay [2] the target is NAMPT (Homo sapiens, UniProt P43490). Briefly: TR-FRET Binding Assay of NAMPT with PRPP. Particulars: with 200 μM PRPP and 2.5 mM ATP; 2 nM NAMPT, 2 nM probe, 16 hours equilibration. An outline of the steps: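 Human NAMPT (2 nM) with 2 nM probe and 1 nM Tb-anti-His antibody, plus 200 μM PRPP and 2.5 mM ATP, 2% DMSO. TR-FRET read after 16 h equilibration, permitting possible enzymatic modification of test compounds; data processing as for the substrate-free format.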
Chain of NAMPT (P43490 whole entry): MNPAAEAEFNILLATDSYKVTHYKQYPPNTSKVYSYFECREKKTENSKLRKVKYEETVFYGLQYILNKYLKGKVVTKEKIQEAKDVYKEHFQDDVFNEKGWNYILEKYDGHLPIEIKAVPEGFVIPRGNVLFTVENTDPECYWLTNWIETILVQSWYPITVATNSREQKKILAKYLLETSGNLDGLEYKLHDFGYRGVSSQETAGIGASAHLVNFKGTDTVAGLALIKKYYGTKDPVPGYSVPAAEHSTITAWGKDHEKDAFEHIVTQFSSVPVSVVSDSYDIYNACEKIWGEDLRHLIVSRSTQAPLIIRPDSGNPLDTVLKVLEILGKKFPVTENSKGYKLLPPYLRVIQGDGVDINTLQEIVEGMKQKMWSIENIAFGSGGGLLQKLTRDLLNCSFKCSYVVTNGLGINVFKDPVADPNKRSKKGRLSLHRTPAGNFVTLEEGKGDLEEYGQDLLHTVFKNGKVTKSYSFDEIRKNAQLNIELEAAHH
Background: In TR-FRET formats the signal depends on donor and acceptor labels being close together.

The target in assay [3] is NAMPT (human, recombinant, C-terminally His-tagged) (Homo sapiens, UniProt P43490). Description: Time-Resolved Fluorescence Resonance Energy Transfer (TR-FRET) Binding Assay of NAMPT. Particulars: without substrates; 6.8 nM NAMPT, 200 nM probe, 3 hours equilibration. In outline: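 A TR-FRET probe-displacement assay used 6.8 nM His-tagged recombinant human NAMPT, 200 nM Oregon Green 488-labelled nicotinamide-competitive probe and 1 nM Tb-anti-His antibody. Buffer was HEPES pH 7.5 with NaCl, MgCl2, DTT and glycerol, plus 2% DMSO, equilibrated 3 h at room temperature. Em520/Em495 ratios, normalized to controls, gave IC50 by four-parameter logistic fit.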
Chain of NAMPT (human, recombinant, C-terminally His-tagged) (P43490 whole entry): as above

One may read the IC50 as the concentration that inhibits the measured activity by half. `O=C(NCc1ccn2ccnc2c1)c1ccc(C2CCN(C(=O)c3ccc(C(F)(F)F)cc3)CC2)cc1` [Example 705, N-(imidazo[1,2-a]pyridin-7-ylmethyl)-4-{1-[4-(trifluoromethyl)benzoyl]piperidin-4-yl}benzamide]: the figures for the IC50 in assay [1], in assay [2] and in assay [3] were 95.8 nM, 1.63 nM and 876 nM, respectively.
In the same order, the values of `O=C(NCc1ccn2ccnc2c1)c1ccc(C2CCN(C(=O)c3ccccc3OC(F)(F)F)CC2)cc1` [Example 706, N-(imidazo[1,2-a]pyridin-7-ylmethyl)-4-{1-[2-(trifluoromethoxy)benzoyl]piperidin-4-yl}benzamide] are 6.54 nM, 0.937 nM and 84.1 nM.
For the molecule `O=C(NCc1ccn2ccnc2c1)c1ccc(C2CCN(C(=O)Cc3ccccc3)CC2)cc1` [Example 707, N-(imidazo[1,2-a]pyridin-7-ylmethyl)-4-[1-(phenylacetyl)piperidin-4-yl]benzamide], the IC50 came to 74.1 nM in assay [1], 0.624 nM in assay [2] and 277 nM in assay [3].
Regarding `O=C(NCc1ccn2ccnc2c1)c1ccc(C2CCN(C(=O)c3ccccc3C(F)(F)F)CC2)cc1` [Example 708, N-(imidazo[1,2-a]pyridin-7-ylmethyl)-4-{1-[2-(trifluoromethyl)benzoyl]piperidin-4-yl}benzamide], the IC50 in assay [1] was 5.97 nM; in assay [2] it was 0.9 nM; in assay [3], 60 nM.
In the same order, the values of `CCCC(=O)N1CCC(c2ccc(NC(=O)NCc3ccn4ccnc4c3)cc2)CC1` [Example 709, 1-[4-(1-butanoylpiperidin-4-yl)phenyl]-3-(imidazo[1,2-a]pyridin-7-ylmethyl)urea] are 3.36 nM, 0.473 nM and 19.4 nM.
Consider `CC[C@H](C)C(=O)N1CCC(c2ccc(NC(=O)NCc3ccn4ccnc4c3)cc2)CC1` [Example 710, 1-(imidazo[1,2-a]pyridin-7-ylmethyl)-3-(4-{1-[(2S)-2-methylbutanoyl]piperidin-4-yl}phenyl)urea], for which the IC50 turned out to be 2.76 nM in assay [1], 1.25 nM in assay [2] and 49.1 nM in assay [3].
Taken in the same sequence, the figures for `CC1CC1C(=O)N1CCC(c2ccc(NC(=O)NCc3ccn4ccnc4c3)cc2)CC1` (stereo not drawn) [Example 711, 1-(imidazo[1,2-a]pyridin-7-ylmethyl)-3-(4-{1-[(2-methylcyclopropyl)carbonyl]piperidin-4-yl}phenyl)urea] were 3.25 nM, 1.11 nM and 88.5 nM.
With `O=C(NCc1ccn2ccnc2c1)Nc1ccc(C2CCN(C(=O)CC3CC3)CC2)cc1` [Example 712, 1-{4-[1-(cyclopropylacetyl)piperidin-4-yl]phenyl}-3-(imidazo[1,2-a]pyridin-7-ylmethyl)urea], the IC50 was determined as 5.8 nM in assay [1], 0.907 nM in assay [2] and 91.1 nM in assay [3].
With `O=C(NCc1ccn2ccnc2c1)Nc1ccc(C2CCN(C(=O)CC(F)(F)F)CC2)cc1` [Example 713, 1-(imidazo[1,2-a]pyridin-7-ylmethyl)-3-{4-[1-(3,3,3-trifluoropropanoyl)piperidin-4-yl]phenyl}urea], the figures for the IC50 in assay [1], in assay [2] and in assay [3] were 2.86 nM, 0.689 nM and 44.3 nM, respectively.
Consider `O=C(NCc1ccn2ccnc2c1)Nc1ccc(C2CCN(C(=O)CCC(F)(F)F)CC2)cc1` [Example 714, 1-(imidazo[1,2-a]pyridin-7-ylmethyl)-3-{4-[1-(4,4,4-trifluorobutanoyl)piperidin-4-yl]phenyl}urea], for which the IC50 was 17.4 nM in assay [1], 0.991 nM in assay [2] and 168 nM in assay [3].
In the same order, the values of `O=C(NCc1ccn2ccnc2c1)Nc1ccc(C2CCN(C(=O)C3CCC(F)(F)CC3)CC2)cc1` [Example 715, 1-(4-{1-[(4,4-difluorocyclohexyl)carbonyl]piperidin-4-yl}phenyl)-3-(imidazo[1,2-a]pyridin-7-ylmethyl)urea] are 3.49 nM, 0.771 nM and 65.9 nM.
As for `O=C(NCc1ccn2ccnc2c1)Nc1ccc(C2CCN(C(=O)Cc3ccccc3)CC2)cc1` [Example 716, 1-(imidazo[1,2-a]pyridin-7-ylmethyl)-3-{4-[1-(phenylacetyl)piperidin-4-yl]phenyl}urea], the values for the IC50 in assay [1], in assay [2] and in assay [3] were 21 nM, 0.607 nM and 50.2 nM, respectively.
Take `O=C(NCc1ccn2ccnc2c1)c1ccc(C2CCN(C(=O)C3CC3)C2)s1` (stereo not drawn) [Example 717, 5-[1-(cyclopropylcarbonyl)pyrrolidin-3-yl]-N-(imidazo[1,2-a]pyridin-7-ylmethyl)thiophene-2-carboxamide]: the IC50 in assay [1] is 72.4 nM; in assay [2] it was 0.428 nM; in assay [3], 186 nM.
For `Cc1ccc(C(=O)N2CCC(c3ccc(C(=O)NCc4ccn5ccnc5c4)s3)C2)cc1` (stereo not drawn) [Example 718, N-(imidazo[1,2-a]pyridin-7-ylmethyl)-5-[1-(4-methylbenzoyl)pyrrolidin-3-yl]thiophene-2-carboxamide], the IC50 in assay [1] is 1.25 nM; in assay [2], 0.755 nM; in assay [3], 23.6 nM.
Regarding `O=C(NCc1ccn2ccnc2c1)Nc1ccc(C2CCN(C(=O)c3ccccc3F)CC2)cc1` [Example 719, 1-{4-[1-(2-fluorobenzoyl)piperidin-4-yl]phenyl}-3-(imidazo[1,2-a]pyridin-7-ylmethyl)urea], the IC50 in assay [1] was 2.37 nM; in assay [2], 0.835 nM; in assay [3], 6.32 nM.
Turning to `O=C(NCc1ccn2ccnc2c1)Nc1ccc(C2CCN(C(=O)c3cccc(F)c3)CC2)cc1` [Example 720, 1-{4-[1-(3-fluorobenzoyl)piperidin-4-yl]phenyl}-3-(imidazo[1,2-a]pyridin-7-ylmethyl)urea], the half-inhibitory concentration (IC50) was 5.82 nM in assay [1], 0.181 nM in assay [2] and 36.7 nM in assay [3].
As to `O=C(NCc1ccn2ccnc2c1)Nc1ccc(C2CCN(C(=O)c3ccc(F)cc3)CC2)cc1` [Example 721, 1-{4-[1-(4-fluorobenzoyl)piperidin-4-yl]phenyl}-3-(imidazo[1,2-a]pyridin-7-ylmethyl)urea], the IC50 in assay [1] came to 30.7 nM; in assay [2] it was 1.21 nM; in assay [3], 125 nM.
In the same order, the values of `O=C(NCc1ccn2ccnc2c1)Nc1ccc(C2CCN(C(=O)c3ccc(F)cc3F)CC2)cc1` [Example 722, 1-{4-[1-(2,4-difluorobenzoyl)piperidin-4-yl]phenyl}-3-(imidazo[1,2-a]pyridin-7-ylmethyl)urea] are 3.88 nM, 1.01 nM and 39.4 nM.
In the same order, the values of `O=C(NCc1ccn2ccnc2c1)Nc1ccc(C2CCN(C(=O)c3ccc(F)c(F)c3)CC2)cc1` [Example 723, 1-{4-[1-(3,4-difluorobenzoyl)piperidin-4-yl]phenyl}-3-(imidazo[1,2-a]pyridin-7-ylmethyl)urea] are 71.6 nM, 0.932 nM and 154 nM.
In the same order, the values of `O=C(NCc1ccn2ccnc2c1)Nc1ccc(C2CCN(C(=O)c3cc(F)cc(F)c3)CC2)cc1` [Example 724, 1-{4-[1-(3,5-difluorobenzoyl)piperidin-4-yl]phenyl}-3-(imidazo[1,2-a]pyridin-7-ylmethyl)urea] are 63.2 nM, 0.992 nM and 161 nM.
Regarding `O=C(NCc1ccn2ccnc2c1)Nc1ccc(C2CCN(C(=O)c3cc(F)ccc3F)CC2)cc1` [Example 725, 1-{4-[1-(2,5-difluorobenzoyl)piperidin-4-yl]phenyl}-3-(imidazo[1,2-a]pyridin-7-ylmethyl)urea], the IC50 in assay [1] worked out at 6 nM; in assay [2] it was 0.747 nM; in assay [3], 19.6 nM.
In the case of `O=C(NCc1ccn2ccnc2c1)Nc1ccc(OC2CCN(C(=O)c3cccc(F)c3)CC2)cc1` [Example 726, 1-(4-{[1-(3-fluorobenzoyl)piperidin-4-yl]oxy}phenyl)-3-(imidazo[1,2-a]pyridin-7-ylmethyl)urea], the IC50 was determined as 71.9 nM in assay [1], 0.534 nM in assay [2] and 251 nM in assay [3].
In the case of `O=C(NCc1ccn2ccnc2c1)Nc1ccc(OC2CCN(C(=O)c3ccc(F)cc3F)CC2)cc1` [Example 727, 1-(4-{[1-(2,4-difluorobenzoyl)piperidin-4-yl]oxy}phenyl)-3-(imidazo[1,2-a]pyridin-7-ylmethyl)urea], the IC50 in assay [1] amounted to 58.2 nM; in assay [2] it was 0.783 nM; in assay [3], 166 nM.
In the same order, the values of `O=C(NCc1ccn2ccnc2c1)Nc1ccc(OC2CCN(C(=O)c3cc(F)ccc3F)CC2)cc1` [Example 728, 1-(4-{[1-(2,5-difluorobenzoyl)piperidin-4-yl]oxy}phenyl)-3-(imidazo[1,2-a]pyridin-7-ylmethyl)urea] are 21 nM, 0.496 nM and 140 nM.
In the same order, the values of `O=C(NCc1ccn2ccnc2c1)Nc1ccc(OC2CCN(C(=O)c3ccc(F)c(F)c3)CC2)cc1` [Example 729, 1-(4-{[1-(3,4-difluorobenzoyl)piperidin-4-yl]oxy}phenyl)-3-(imidazo[1,2-a]pyridin-7-ylmethyl)urea] are 45.9 nM, 0.765 nM and 428 nM.
